The test has as its system progenerating CD34+ stock cells obtained from human bone marrow. The test can be described thus: Cytolysis of CD34+ progenerating stock cells after chemotherapy treatment (SYTOX green). It is filed as cell-based. The settings on record: propolis 0 μg/ml (Control). On the procedure:
The objective of the test is to evaluate the effect of the propolis on the cytolysis of progenerating CD34+ stock cells obtained from human bone marrow following the application of chemotherapy treatment (epirubicin and taxotere).
The culture medium that is used is as follows: IMDM, 15 SVF, SCF (50 ng/ml), TPO (50 ng/ml), FK (50 ng/ml).
The test protocol is described below.
On D3: thawing and seeding with 50,000 cells/ml in a flask ([…])
On D0: marking and seeding with 6,000 cells/well in a 96-well plate
Between D0 and D4: • Treatment of cells with a propolis extract (Example 1) between D0 and D3 with the following doses: 0, 0.5, 1, 4, 10 and 20 μg/ml • Treatment of cells with chemotherapy agents (epirubicin at […] and taxotere […]) between D1 and D3
On D5: Marking with 5 nM of SYTOX green, and measurement of cytolysis.
The obtained results that are presented in the table below provide the percentage of CD34+ progenerating stock cells that is cytolyzed on D5.

Each structure is given as a SMILES string.

With `COc1cccc2c1C(=O)c1c(O)c3c(c(O)c1C2=O)C[C@@](O)(C(=O)CO)C[C@@H]3O[C@H]1C[C@H](N)[C@@H](O)[C@H](C)O1` [Epirubicin], the “percentage of CD34+ progenerating stock cells that is cytolyzed on D5” value (Epirubicin 4.74.10^6 M D1-D3 alone) stood at 53.93%.
Turning to `CC(=O)O[C@@]12CO[C@@H]1C[C@H](O)[C@@]1(C)C(=O)[C@H](O)C3=C(C)[C@@H](OC(=O)[C@H](O)[C@@H](NC(=O)OC(C)(C)C)c4ccccc4)C[C@@](O)([C@@H](OC(=O)c4ccccc4)[C@H]21)C3(C)C` [Taxotere], for the setting “Taxotere 2.80.10^6 M D1-D3 alone”, the “percentage of CD34+ progenerating stock cells that is cytolyzed on D5” value turned out to be 65.47%.

These data come from patent US10463700B2, “Use of propolis for combating the side effects of chemotherapy” (POLLENERGIE, priority 2013, dated 2019).
